Source: patent publication US10822325B2, “Human GLUT5 specific inhibitors and methods of treatment” (UNM RAINFOREST INNOVATIONS, priority 2015, dated 2020)
Residue numbers refer to the chain shown, from its start. “Also recorded” adds a separate entry of the source.

Assays:
human GLUT1 = target: T1, human GLUT1 (Homo sapiens, UniProt P11166); assay: Glucose entrance counter-flow transport in GLUT1 proteoliposomes; type: biochemical; settings: 2 mM compound, one minute
T1 construct: Full length DNA was subcloned into pFastBac1 (Life Technologies) vector with a N-terminal hexahistidine tag; hexahistidine (N); made in house; host or cells: Sf21 insect cells (baculovirus, pFastBac1)
T1 sequence (P11166 1-492): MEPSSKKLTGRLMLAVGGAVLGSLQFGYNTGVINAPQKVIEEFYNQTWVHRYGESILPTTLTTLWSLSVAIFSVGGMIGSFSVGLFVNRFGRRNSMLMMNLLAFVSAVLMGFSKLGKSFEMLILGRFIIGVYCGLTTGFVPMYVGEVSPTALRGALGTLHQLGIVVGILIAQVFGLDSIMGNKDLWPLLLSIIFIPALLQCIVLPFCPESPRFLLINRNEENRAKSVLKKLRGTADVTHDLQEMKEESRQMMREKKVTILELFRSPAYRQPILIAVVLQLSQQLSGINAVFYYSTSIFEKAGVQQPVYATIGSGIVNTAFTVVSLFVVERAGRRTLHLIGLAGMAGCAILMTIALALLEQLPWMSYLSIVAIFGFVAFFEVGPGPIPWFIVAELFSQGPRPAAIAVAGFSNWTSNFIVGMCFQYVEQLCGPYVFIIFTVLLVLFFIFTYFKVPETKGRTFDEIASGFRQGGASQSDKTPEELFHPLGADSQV
Protocol: (§1) cDNAs of GLUT1, 3, 4 and 5 were purchased from Open Biosystems (GE Healthcare). cDNAs of GLUT2 was a gift from Prof. Graeme Bell at University of Chicago. Full length DNA was subcloned into pFastBac1 (Life Technologies) vector with a N-terminal hexahistidine tag. Bacmids were generated in DH10Bac E. coli cells (Life Technologies). Baculoviruses were produced using Cellfectin II Reagent and amplified in Sf21 insect cells (Life Technologies). Cells were maintained at 26° C., and P1 (10^6 pfu/mL) was collected from infected cells after 72 hours. SF21 cells were propagated in HyClone SFX-Insect media (GE Healthcare), supplemented with 5% fetal bovine serum (Biowest), 4.8 mM glutamine, antibiotics (100 units/mL Penicillin G and 100 μg/mL streptomycin sulfate) and amphotericin B (2.5 μg/mL). […]
(§2) For the entrance counterflow transport in proteoliposomes, the assay was started by the addition of 5 μL proteoliposomes solution (OD600 nm ˜30) to 200 μL, assay solution, containing 10 μM ^14C-radiolabeled glucose (for GLUT1 wild-type or F379H mutant and GLUT2-4) or fructose (for GLUT5 wild-type or H387F mutant and GLUT2) (Moravek Biochemicals) in 100 mM KPi buffer at pH 7.5. After one minute (or different specified time points when the time-dependent counter-flow transport activity was measured), the transport was stopped with ice-chilled quench buffer [0.1 M KPi (pH 5.5) and 0.1 M lithium chloride].

GLUT1F379H = target: T2, GLUT1F379H (Homo sapiens, UniProt P11166, F379H); assay: Glucose entrance counter-flow transport in GLUT1F379H mutant proteoliposomes; type: biochemical; settings: 2 mM compound
T2 construct: Full length DNA was subcloned into pFastBac1 (Life Technologies) vector with a N-terminal hexahistidine tag; hexahistidine (N); made in house; host or cells: Sf21 insect cells (baculovirus, pFastBac1)
T2 sequence (P11166 1-492 F379H): T1 sequence (P11166 1-492) with F379H
Protocol: as §1, §2

SMILES	effect on GLUT1 glucose transport (human GLUT1)	effect on GLUT1F379H glucose transport (GLUT1F379H)
O=C(CCc1ccc(O)cc1)c1c(O)cc(O)cc1O [phloretin, reference compound]	inhibited	no longer inhibited; also recorded: ceased to inhibit
CS(=O)(=O)c1ccc(Nc2ccc3c(c2)OCO3)c([N+](=O)[O-])c1 [MSNBA, N-[4-(methylsulfonyl)-2-nitrophenyl]-1,3-benzodioxol-5-amine]	did not affect; also recorded: did not influence	remained insensitive; also recorded: remained unaffected
